One experiment deals with HeLa cells. Nature of the experiment: cells. The settings on record: for viability at 500 µM: Homo sapiens, HeLa, 65 h. In a few lines:
(§1)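 HeLa and A549 cells grown in DMEM with 10% FCS and 2 mM L-Glutamine were seeded at 2 × 10^4 cells/well. They were exposed to compounds for ~65 hours, then Alamar Blue was added for a further 5 hours to measure viability.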

For another experiment, the system named is A549 cells. Kind of experiment: Cytotoxicity against A549 cells, Alamar Blue. Type of experiment: cell-based. The settings on record: for viability at 500 µM: Homo sapiens, A549, 65 h. In a few lines: as §1
Background: The colour change of resazurin is a common sign of viable cells or microbes.

Where [1] appears, read: read-out: HeLa Cells Alamar Blue.
[2] abbreviates: Supplementary Table 1, compound 0.5 mM, percentage of controls (n=1).
Where [3] appears, read: Supplementary Table 1, compound 0.5 mM, percentage of controls, mean ± SD (n=3) or SE (n=2).

Where a name gives a salt, the structure may show the parent alone. Read-outs that look alike come from different tables or passages of the source.

For the compound `Cn1ccc2ccc(C(=O)O)cc21` [compound 398, 1‐methyl‐1H‐indole‐6‐carboxylic acid], the viability at 500 µM in the experiment with HeLa cells (setting [1]) came out at 109 ± 10.3%; in the experiment on A549 cells (setting [2]), 101%.
For the compound `CNCc1nn(C)c2ccccc12` [compound 401, N‐methyl‐N‐[(1‐methyl‐1H‐indazol‐3‐yl)methyl]amine], the “HeLa Cells Alamar Blue” value with HeLa cells (setting [3]) is given as 92.5 ± 7.4 percentage of controls. Also, the “A549 Cells Alamar Blue” value with A549 cells (setting [2]) is 91.7 percentage of controls.
`NCc1cc(Cl)cc(Cl)c1` [compound 405, 3,5‐dichlorobenzylamine]: the viability at 500 µM in the experiment on HeLa cells (setting [1]) was 77.7 ± 13.9%; in the experiment on A549 cells (setting [2]), 84.1%.
For `OCc1ccccc1C(F)(F)F` [compound 407, [2‐(trifluoromethyl)phenyl]methanol] the same measures were 104 ± 13.9% and 90.2%.
Consider `Nc1ccc(N2CCCCC2)cc1` [compound 413, 4‐piperidinoaniline], for which the figures for the viability at 500 µM in the experiment on HeLa cells (setting [1]) and in the experiment on A549 cells (setting [2]) were 11.6 ± 5.1% and 53.2%, respectively.
For `ON=C1CN2CCC1CC2` [compound 416, quinuclidin‐3‐one oxime hydrochloride] the same measures were 107 ± 9.6% and 109%.
As to `Nc1cccc(OC(F)(F)F)c1` [compound 419, 3‐(trifluoromethoxy)aniline], the viability at 500 µM amounted to 105 ± 11.1% in the experiment with HeLa cells (setting [1]) and 85% in the experiment on A549 cells (setting [2]).
For `O=C1N[C@@H](Cc2ccccc2)CO1` [compound 421, (S)‐4‐BENZYL‐2‐OXAZOLIDINONE] the same measures were 86 ± 5.1% and 80.2%.
As for `COC(=O)C1Cc2ccccc2N1` (centres unmarked) [compound 422, methyl 2‐indolinecarboxylate], the figures for the viability at 500 µM in the experiment on HeLa cells (setting [1]) and with A549 cells (setting [2]) were 11.1 ± 5.7% and 40.1%, respectively.
With `Nc1nc(-c2ccccc2)ns1` [compound 423, 3‐phenyl‐1,2,4‐thiadiazol‐5‐amine], the viability at 500 µM in the experiment with HeLa cells (setting [1]) came to 82.7 ± 3.9%; with A549 cells (setting [2]), 52.7%.
For `Nc1nsc(-c2ccccc2)n1` [compound 424, 5‐phenyl‐1,2,4‐thiadiazol‐3‐amine] the same measures were 62.2 ± 15.4% and 60.1%.
For the compound `CCCc1ccc(NC(C)=O)cc1` [compound 426, N1‐(4‐propylphenyl)acetamide], the results for the viability at 500 µM in the experiment on HeLa cells (setting [1]) and in the experiment on A549 cells (setting [2]) were 89.8 ± 10.8% and 71.7%, respectively.
Regarding `Nc1ccccc1N1CCNCC1` [compound 429, 2‐piperazin‐1‐ylaniline], the viability at 500 µM in the experiment on HeLa cells (setting [1]) was 78.5 ± 7.7%; in the experiment with A549 cells (setting [2]), 54.3%.
For `O=C(O)C1COc2ccccc2C1` (centres unmarked) [compound 431, 3‐chromanecarboxylic acid] the same measures were 102 ± 5.9% and 95.8%.
With `O=C(O)c1csc2ccccc12` [compound 432, 1‐benzothiophene‐3‐carboxylic acid], the viability at 500 µM worked out at 88.5 ± 12.2% with HeLa cells (setting [1]) and 55.1% with A549 cells (setting [2]).
Take `CC1(C)Cc2cccc(CO)c2O1` [compound 434, (2,2‐dimethyl‐2,3‐dihydro‐1‐benzofuran‐7‐yl)methanol]: the “HeLa Cells Alamar Blue” value with HeLa cells (setting [3]) was 80.2 ± 12 percentage of controls. Also, the “A549 Cells Alamar Blue” value with A549 cells (setting [2]) is given as 51.1 percentage of controls.
As for `Nc1ccc(N2CCOCC2)cc1` [compound 435, 4‐morpholinoaniline], the figures for the viability at 500 µM in the experiment on HeLa cells (setting [1]) and with A549 cells (setting [2]) were 10.2 ± 6.9% and 33.5%, respectively.
Regarding `Nc1ccccc1N1CCOCC1` [compound 436, 2‐morpholinoaniline], the viability at 500 µM in the experiment with HeLa cells (setting [1]) was determined as 79.1 ± 5.8%; in the experiment on A549 cells (setting [2]), 56.4%.
In the case of `OCc1ccc(N2CCCC2)nc1` [compound 437, [6‐(1‐pyrrolidinyl)‐3‐pyridinyl]methanol], the viability at 500 µM came to 9.3 ± 4.8% with HeLa cells (setting [1]) and 44.3% in the experiment on A549 cells (setting [2]).
For `OCc1ccnc(N2CCCC2)c1` [compound 438, (2‐pyrrolidin‐1‐ylpyrid‐4‐yl)methanol] the same measures were 103 ± 14.9% and 71.9%.
With `CC(C)(C)C(=O)Nc1ccncc1` [compound 439, 2,2‐dimethyl‐N‐(4‐pyridinyl)propanamide], the results for the viability at 500 µM in the experiment with HeLa cells (setting [1]) and in the experiment on A549 cells (setting [2]) were 54.6 ± 4.5% and 65%, respectively.
For `Cc1ccc2sc(CO)cc2c1` [compound 442, 5‐Methylbenzo[b]thiophene‐2‐methanol] the same measures were 71.3 ± 3.5% and 53.7%.
For `CCN(CC)CCc1ccccn1` [compound 443, N,N‐diethyl‐N‐[2‐(2‐pyridyl)ethyl]amine] the same measures were 90.9 ± 9.8% and 49.2%.
For `CCOC(=O)Cc1ccc(N)cc1` [compound 446, ethyl 2‐(4‐aminophenyl)acetate] the same measures were 80.1 ± 14.8% and 63.2%.
Take `Oc1cccc(N2CCOCC2)c1` [compound 447, 3‐morpholinophenol]: the viability at 500 µM in the experiment on HeLa cells (setting [1]) was determined as 77.8 ± 11.8%; in the experiment with A549 cells (setting [2]), 62.8%.
For `Oc1ccccc1N1CCOCC1` [compound 448, 2‐morpholinophenol] the same measures were 93.3 ± 6.7% and 71.1%.
`COC(=O)Cc1cccc(OC)c1` [compound 451, methyl 2‐(3‐methoxyphenyl)acetate]: the viability at 500 µM amounted to 101 ± 9.6% in the experiment on HeLa cells (setting [1]) and 93.2% in the experiment on A549 cells (setting [2]).
Take `COc1ccccc1CCC(=O)O` [compound 452, 3‐(2‐methoxyphenyl)propanoic acid]: the values for the viability at 500 µM with HeLa cells (setting [1]) and in the experiment on A549 cells (setting [2]) were 97.3 ± 7.2% and 61.6%, respectively.
Take `OCc1ccc2c(c1)OCCCO2` [compound 453, 3,4‐dihydro‐2H‐1,5‐benzodioxepin‐7‐ylmethanol]: the “HeLa Cells Alamar Blue” value in the experiment on HeLa cells (setting [3]) is listed as 86.6 ± 3.2 percentage of controls. For the same compound, the “A549 Cells Alamar Blue” value in the experiment on A549 cells (setting [2]) is 51.6 percentage of controls.
On to `N#Cc1ccc(-c2ccccc2)nc1` [compound 456, 6‐phenylnicotinonitrile], for which the viability at 500 µM with HeLa cells (setting [1]) came to 33.9 ± 6.9%; in the experiment with A549 cells (setting [2]) it was 67.1%.
For `Fc1ccc(N2CCNCC2)cc1` [compound 457, 1‐(4‐fluorophenyl)piperazine] the same measures were 12.7 ± 10.1% and 74.7%.
For `OCc1cc(-c2cccs2)[nH]n1` [compound 459, (5‐thien‐2‐yl‐1H‐pyrazol‐3‐yl)methanol] the same measures were 27.8 ± 10.9% and 85%.
For the compound `Nc1cccc(N)c1` [compound 461, benzene‐1,3‐diamine dihydrochloride], the viability at 500 µM came to 106 ± 10.7% in the experiment on HeLa cells (read-out: HeLa Cells Alamar Blue, Supplementary Table 1, compound 0.5 mM, percentage of controls, mean ± SD (n=3) or SE (n=2)) and 91.8% in the experiment with A549 cells (setting [2]).
Regarding `OCc1cc(-c2cccs2)on1` [compound 462, [5‐(2‐thienyl)‐3‐isoxazolyl]methanol], the values for the viability at 500 µM with HeLa cells (setting [1]) and with A549 cells (setting [2]) were 75.6 ± 5.9% and 76.2%, respectively.
Take `COC(=O)c1cc2ccsc2[nH]1` [compound 463, methyl 6H‐thieno[2,3‐b]pyrrole‐5‐carboxylate]: the “HeLa Cells Alamar Blue” value in the experiment on HeLa cells (setting [3]) is reported as 101.3 ± 11 percentage of controls. The “A549 Cells Alamar Blue” value in the experiment on A549 cells (setting [2]) was 59.7 percentage of controls.
Turning to `Cn1c(C(=O)O)cc2sccc21` [compound 464, 4‐methyl‐4H‐thieno[3,2‐b]pyrrole‐5‐carboxylic acid], in the experiment with HeLa cells (setting [3]), the “HeLa Cells Alamar Blue” value is recorded as 93.5 ± 4.2 percentage of controls. In addition, the “A549 Cells Alamar Blue” value in the experiment with A549 cells (setting [2]) is reported as 89.4 percentage of controls.
For `O=C(O)CSCc1ccccc1` [compound 465, 2‐(benzylthio)acetic acid], the viability at 500 µM in the experiment on HeLa cells (setting [1]) turned out to be 99 ± 9.3%; with A549 cells (setting [2]) it was 67.9%.
For `COC(=O)CSc1ccccc1` [compound 466, methyl 2‐(phenylthio)acetate] the same measures were 102 ± 4.8% and 84.7%.
For `O=C(C1CCCNC1)N1CCCC1` (centres unmarked) [compound 468, 3‐piperidinyl(1‐pyrrolidinyl)methanone] the same measures were 110 ± 13.3% and 80.7%.
For `O=C(C1CCNCC1)N1CCCC1` [compound 469, 4‐piperidinyl(1‐pyrrolidinyl)methanone] the same measures were 99.5 ± 8.7% and 86.1%.
Turning to `NC(=S)CSc1ccccc1` [compound 472, 2‐(phenylthio)ethanethioamide], the viability at 500 µM in the experiment with HeLa cells (setting [1]) turned out to be 76.5 ± 11.2%; in the experiment with A549 cells (setting [2]) it was 86%.
For `CC(=O)Nc1ccc(Cl)cc1C` [compound 473, 4‐chloro‐2‐methylacetanilide] the same measures were 109 ± 11.9% and 76.1%.
For `Cl.Cl.NCCc1c[nH]cn1` [compound 475, 2‐(1H‐imidazol‐4‐yl)ethylamine dihydrochloride], the “HeLa Cells Alamar Blue” value in the experiment on HeLa cells came to 95.9 ± 6.6. In addition, the “A549 Cells Alamar Blue” value with A549 cells amounted to 80.3.
For `O=C1CSC(c2cccs2)C1` (centres unmarked) [compound 482, 5‐(2‐thienyl)tetrahydrothiophen‐3‐one], the results for the viability at 500 µM in the experiment on HeLa cells (setting [1]) and in the experiment on A549 cells (setting [2]) were 116 ± 6.7% and 112%, respectively.
For `OCc1ccc(-c2ccncc2)cc1` [compound 488, (4‐pyrid‐4‐ylphenyl)methanol] the same measures were 65.5 ± 17.5% and 133%.
Take `OCc1ccc(-c2cccnc2)cc1` [compound 489, (4‐pyrid‐3‐ylphenyl)methanol]: the viability at 500 µM in the experiment with HeLa cells (setting [1]) was determined as 66.4 ± 18.8%; in the experiment with A549 cells (setting [2]), 131%.
For `OCc1ccc(-c2ccccn2)cc1` [compound 490, (4‐pyrid‐2‐ylphenyl)methanol] the same measures were 102 ± 13.5% and 118%.
With `OCc1cccc(-c2ccncc2)c1` [compound 491, (3‐pyrid‐4‐ylphenyl)methanol], the viability at 500 µM stood at 34.4 ± 13.8% in the experiment on HeLa cells (setting [1]) and 66.8% in the experiment with A549 cells (setting [2]).
For `OCc1ccc(-c2ccccc2)nc1` [compound 492, (6‐phenyl‐3‐pyridinyl)methanol] the same measures were 78.6 ± 15.6% and 81.3%.

(Values after article PMC3199943, “Screening the MayBridge Rule of 3 Fragment Library for Compounds That Interact with the Trypanosoma brucei myo-Inositol-3-Phosphate Synthase and/or Show Trypanocidal Activity” (Molecular Biology International, 2011).)
